For the assay, the system named is Lewis Lung Carcinoma cells. Briefly: Lewis Lung Carcinoma efficacy study. In kind it is in vivo. Conditions: single agent, dosed orally twice daily at 50, 100 or 200 mg/kg; female C57.Bl/6 mice implanted subcutaneously with Lewis Lung Carcinoma cells; relative to control. As for the experimental part:
Female C57.Bl/6 mice (n=40) were implanted subcutaneously with 1×10^6 Lewis Lung Carcinoma cells suspended in PBS. The day following implantation, mice were randomized into 4 groups of n=10 mice to receive the following treatments dosed orally twice daily until study end: 1) Vehicle (water); 2) Compound 10 at 50 mg/kg formulated in water; 3) Compound 10 at 100 mg/kg formulated in water; or 4) Compound 10 at 200 mg/kg formulated in water. Tumors were measured three times per week with digital calipers and tumor volumes calculated with the following formula: tumor volume (mm^3)=(a×b^2/2) where ‘b’ is the smallest diameter and ‘a’ is the largest perpendicular diameter. ***P-value<0.001, ****P-value<0.0001 (Two-sided T-test).

For `C[C@H](N)C(=O)N1C[C@H](CCCB(O)O)[C@](N)(C(=O)O)C1` [Compound 10, (3R,4S)-3-amino-1-((S)-2-aminopropanoyl)-4-(3-boronopropyl)pyrrolidine-3-carboxylic acid], the “tumor volume over time (tumor growth)” value is given as “slows tumor growth relative to control”.
